Where two headings read alike, the source gives them in different places.
Assays:
[1] = tested on: strangulated nerve-damaged rats; experiment: Suppressive effect on neurogenic pain (allodynia, von Frey pain threshold) in strangulated nerve-damaged rats; type: in vivo, rat; conditions: male SD rats, orally administered at the dose of 5 and 10 mg/kg, measured 1, 3 and 5 hours after administration
Method: Suppressive Effect of the Compound to Neurogenic Pain in Strangulated Nerve-damaged Rats
The test was carried out in accordance with a method by G. M. Pitcher, et al. [Pain, 1999,. vol. 83, pages 37 to 46] which is an improvement of a method by T. Mosconi and K. Kruger [Pain, 1996, vol. 64, pages 37 to 57].
Using male rats of an SD strain (Sprague-Dawley rats), strangulated nerve-damaged rats were prepared by removing sciatic nerve under anesthetizing with pentobarbital, and covering with a PE-60 polyethylene tube (trade name: Intramedic; size: PE-60; manufactured by Becton Dickinson) having a length of 2 mm over the removed area. After 14 to 21 days from the preparation, the following test was carried out. Incidentally, a pain threshold (g) was calculated by the following method, and the rats (strangulated rat-damaged rats) showing less than 4 g of a 50% pain threshold were used for the test in which one group comprised six rats. […]
For the measurement of allodynia which is characteristically noted in neurogenic pain, a von Frey filament (trade name: touch test sensory evaluator; catalog number: model 58011) was used and the result is expressed as a pain threshold (g). The pain threshold (g) was calculated by the up-down method by W. J. Dixon [Annual Review of Pharmacology and Toxicology, 1980, vol. […]

[2] = molecular target: T1, NR2B subunit of the NMDA receptor (Rattus norvegicus, UniProt P35439+Q00960); experiment: Antagonistic activity at rat NMDA receptor NR2B subunit: inhibition of [3H]ifenprodil binding to rat forebrain membrane
T1 construct: The forebrain membrane specimen of male rats of an SD strain; from tissue; host or cells: rat (SD strain, male) forebrain membranes
T1 sequence (Q00960 27-1482, other chains not shown): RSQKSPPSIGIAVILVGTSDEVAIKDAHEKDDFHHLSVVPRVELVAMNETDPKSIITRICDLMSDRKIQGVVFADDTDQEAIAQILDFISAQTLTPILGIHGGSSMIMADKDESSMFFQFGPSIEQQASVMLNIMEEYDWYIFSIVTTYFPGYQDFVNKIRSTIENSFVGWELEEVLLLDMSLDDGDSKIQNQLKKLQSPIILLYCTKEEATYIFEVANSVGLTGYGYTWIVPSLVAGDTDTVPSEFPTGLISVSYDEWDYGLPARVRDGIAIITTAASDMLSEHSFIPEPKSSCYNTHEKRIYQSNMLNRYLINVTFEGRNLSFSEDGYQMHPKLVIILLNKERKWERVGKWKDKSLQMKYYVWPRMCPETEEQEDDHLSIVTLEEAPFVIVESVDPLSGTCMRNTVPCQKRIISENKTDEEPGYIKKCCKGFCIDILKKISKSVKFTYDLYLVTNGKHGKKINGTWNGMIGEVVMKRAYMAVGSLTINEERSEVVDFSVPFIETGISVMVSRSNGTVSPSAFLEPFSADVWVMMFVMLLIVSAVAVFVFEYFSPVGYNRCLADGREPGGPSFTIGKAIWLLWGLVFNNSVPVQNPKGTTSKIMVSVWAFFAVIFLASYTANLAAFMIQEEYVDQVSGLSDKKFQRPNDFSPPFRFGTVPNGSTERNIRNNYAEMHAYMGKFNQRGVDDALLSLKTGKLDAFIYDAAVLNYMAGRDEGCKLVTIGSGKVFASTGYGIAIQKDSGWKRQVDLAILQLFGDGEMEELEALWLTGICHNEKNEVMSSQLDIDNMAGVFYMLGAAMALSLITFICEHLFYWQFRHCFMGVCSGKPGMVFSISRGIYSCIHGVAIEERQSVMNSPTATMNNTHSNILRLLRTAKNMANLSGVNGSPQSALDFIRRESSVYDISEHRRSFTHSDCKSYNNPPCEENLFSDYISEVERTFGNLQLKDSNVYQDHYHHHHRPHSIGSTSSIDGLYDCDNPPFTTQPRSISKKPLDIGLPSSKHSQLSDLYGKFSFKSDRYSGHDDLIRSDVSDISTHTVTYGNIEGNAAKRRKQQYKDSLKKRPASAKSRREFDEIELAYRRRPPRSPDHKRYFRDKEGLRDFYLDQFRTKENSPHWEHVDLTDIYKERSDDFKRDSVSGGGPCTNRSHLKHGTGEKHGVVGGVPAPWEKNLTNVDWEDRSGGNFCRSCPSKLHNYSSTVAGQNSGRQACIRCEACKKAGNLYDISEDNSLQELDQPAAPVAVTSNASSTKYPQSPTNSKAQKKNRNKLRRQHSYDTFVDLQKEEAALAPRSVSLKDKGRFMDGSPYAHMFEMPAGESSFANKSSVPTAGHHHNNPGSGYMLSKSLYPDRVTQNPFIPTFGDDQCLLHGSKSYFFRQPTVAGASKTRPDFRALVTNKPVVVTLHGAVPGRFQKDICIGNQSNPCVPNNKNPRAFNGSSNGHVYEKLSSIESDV
Method: Antagonistic Activity at Rat NMDA Receptor NR2B Subunit
The forebrain membrane specimen of male rats of an SD strain (final concentration: 250 μg protein/mL), [^3H]-ifenprodil [diluted with an HEPES buffer (20 mmol/L HEPES-KOH and 100 μmol/L trifluoroperazine (pH 7.4)) to give the final concentration of 4 nmol/L] and a test compound (each being diluted with an HEPES buffer to give the final concentration of […]) were mixed, and incubated at 25° C. for 90 minutes shading from light. The above-incubated membrane was recovered to a G/F-B filter using a cell harvester (Brandel; M-24) to stop the reaction. The resulting membrane was further washed with an HEPES buffer for three times, and radioactivity on the filter was measured (Beckman LS 6500). The antagonistic activity of the test compound for an NMDA receptor NR2B subunit was calculated by the following formula as an inhibiting rate for binding of [^3H]ifenprodil to the NR2B subunit of the NMDA receptor. The result is shown in Table 6 in terms of the concentration (IC50 value) of the test compound for 50% inhibition of binding of [^3H]ifenprodil to the NR2B subunit of the NMDA receptor. [formula] Non-specific binding amount: Binding amount of [^3H]ifenprodil in the presence of 10 μmol/L of ifenprodil Total binding amount: Binding amount of [^3H]ifenprodil in the absence of the test compound
Binding amount in the present of test compound: Binding amount of [^3H]ifenprodil in the presence of the test compound in each concentration

[3] = forebrain membrane of male SD rats, 4 nmol/L [3H]-ifenprodil, 25° C., 90 minutes, read-out: IC50, concentration for 50% inhibition of binding of [3H]ifenprodil to the NR2B subunit of the NMDA receptor

SMILES: CC(C(O)c1ccc2c(c1)CCC(=O)N2)N1CCC(O)(c2cccs2)CC1 (racemic) [Compound 6, (±)-threo-6-{1-Hydroxy-2-[4-hydroxy-4-(thiophene-2-yl)piperidino]propyl}-3,4-dihydroquinolin-2(1H)-one]
- improvement of allodynia (pain threshold, von Frey filament) versus Solvent treated group [1]: significantly improved
- IC50 [2, 3]: 4.6 nM

SMILES: CC(C(O)c1ccc2[nH]c(=O)sc2c1)N1CCC(O)(c2cccs2)CC1 (racemic) [Compound 1, (±)-threo-6-{1-Hydroxy-2-[4-hydroxy-4-(thiophenee-2-yl)piperidino]propyl}benzothiazol-2(3H)-one]
- IC50 [2]: 2 nM

SMILES: CC(C(O)c1ccc2c(c1)CCC(=O)N2)N1CCC(O)(c2cccs2)CC1 (racemic) [Compound 7, (±)-erythro-6-{1-Hydroxy-2-[4-hydroxy-4-(thiophene-2-yl)piperidino]propyl}-3,4-dihydroquinolin-2(1H)-one]
- IC50 [2, 3]: 5.5 nM

SMILES: O=C1CCc2cc(C(O)CN3CCC(O)(c4cccs4)CC3)ccc2N1 (centres unmarked) [Compound 10]
- improvement of allodynia (pain threshold, von Frey filament) versus Solvent treated group [1]: significantly improved
- IC50 [2, 3]: 5.2 nM

SMILES: CC(C(O)c1ccc2[nH]c(=O)sc2c1)N1CCC(O)(c2cccs2)CC1 (racemic) [Compound 2, (±)-erythro-6-{1-hydroxy-2-[4-hydroxy-4-thiophenee-2-yl)piperidino]propyl}benzothiazol-2(3H)-one]
- IC50 [2]: 4.1 nM

SMILES: O=c1[nH]c2ccc(C(O)CN3CCC(O)(c4cccs4)CC3)cc2s1 (centres unmarked) [Compound 5, 6-{1-Hydroxy-2-[4-hydroxy-4-(thiophene-2-yl)-piperidino]ethyl}benzothiazol-2(3H)-one]
- IC50 [2]: 2.9 nM
